Reference: US20250263404A1, “AMINOPYRIDINES AS ACTIVATORS OF PI3 KINASE” (UCL Business Ltd, priority 2021, published 2025)

Assays:
[1] = system: pAKT^S473 in mouse embryonic fibroblasts (MEFs); experiment: pAKT S473 by Wes western blotting in MEFs; type: cell-based
Excerpt: The inventors next monitored the activation of AKT, the best-known PI3K effector stimulated by PIP3/PI(3,4)P2 production in cells. […] As previously reported, PI3Kα-null MEFs still respond to insulin, but now in a PI3Kβ-dependent manner, as shown by sensitivity of insulin-stimulated pAKT^S473 to the PI3Kβ-selective inhibitor TGX-221 (FIG. 3b). […] Similar observations were made for mTORC1 pathway activation, as measured by S6 (Ser240/44) and 4EBP1 (Ser65) phosphorylation (FIG. 3e). […] Experiments with A549 cells and MEFs were performed separately using slightly different protocols. Briefly, A549 cells were seeded at 200,000 cells per well in 24-well plates in DMEM (10% FBS+1% P/S) and allowed to adhere overnight. The next day, cells were washed once with PBS before addition of serum-free DMEM for 24 h. On the day of treatment, cells were incubated in fresh serum-free DMEM prior to treatment. […]

[2] = target: LCK (Homo sapiens, UniProt P06239); experiment: SelectScreen kinase profiling, LCK; type: biochemical; details: 1 μM of 1938, 50 μM ATP
LCK, sequence (P06239 whole entry): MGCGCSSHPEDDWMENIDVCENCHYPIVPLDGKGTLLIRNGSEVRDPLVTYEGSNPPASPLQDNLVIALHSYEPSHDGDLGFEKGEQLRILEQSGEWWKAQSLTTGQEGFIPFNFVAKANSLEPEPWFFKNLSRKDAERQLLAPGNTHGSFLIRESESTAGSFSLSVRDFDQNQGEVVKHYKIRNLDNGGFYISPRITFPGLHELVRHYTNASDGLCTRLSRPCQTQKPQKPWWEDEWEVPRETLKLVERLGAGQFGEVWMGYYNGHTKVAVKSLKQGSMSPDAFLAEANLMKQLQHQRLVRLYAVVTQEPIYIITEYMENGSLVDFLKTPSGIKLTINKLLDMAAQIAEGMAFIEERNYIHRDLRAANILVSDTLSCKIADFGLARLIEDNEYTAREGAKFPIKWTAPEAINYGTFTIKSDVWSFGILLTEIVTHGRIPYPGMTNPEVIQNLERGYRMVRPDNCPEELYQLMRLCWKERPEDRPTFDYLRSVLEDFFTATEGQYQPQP
Experimental: 133 protein kinases and 7 lipid kinases were counterscreened, with […] used at 1 μM, using the Adapta, Lantha and Z-LYTE assays (SelectScreen Kinase Profiling Service; Thermofisher—experimental details of these assays can be found here: https://www.thermofisher.com/uk/en/home/industrial/pharma-biopharma/drug-discovery-development/target-and-lead-identification-and-validation/kinasebiology/kinase-activity-assays.html. The tree representation in KinMap generated courtesy of Cell Signaling Technology, Inc. (www.cellsignal.com). mTORC1 (mTOR/RAPTOR/LST8) protein complex and ATM kinase and substrates were produced as previously described (Anandapadamanaban, M. et al. Science (New York, NY 366, 203-210 (2019); Baretic, D. et al. Sci Adv 3, e1700933 (2017). Screening of 1938 was conducted using SuperSep Phos-Tag 50 μmol/l 100×100×6.6 mm 17-well (192-18001/199-18011) gels. For ATM assays, 100 nM ATM was incubated for 30 min at 30° C. with 5 μM GST-p53 and 1 mM ATP, in the absence or presence of 200 μM 1938 in ATM Kinase Buffer (50 mM HEPES pH 7.5, 100 mM NaCl, 10% glycerol, 2 mM […], 5 mM MgCl2). […] Gels were then stained using InstantBlue™ Coomassie stain, and then quantified using BioRad Image Lab Software. […]

[3] = system: PIP3 levels in A549 cells; experiment: PIP3 measurement by mass spectrometry in A549 cells; type: cell-based, human; details: 2 min
Experimental: FIG. 21. a, MEFs were stimulated for the indicated time points with 1938 (5 μM) or for 2 min with PDGF (20 ng/ml) or insulin (100 nM), followed by lipid extraction and PIP3 measurement by mass spectrometry. b, MEFs were stimulated for 2 min with increasing doses of 1938 or PDGF, followed by lipid extraction and PIP3 measurement by mass spectrometry. c, A549 cells were stimulated for 2 min with increasing doses of 1938 or insulin, or 10 ng/ml PDGF, followed by lipid extraction and PIP3 measurement by mass spectrometry. […] These maximal 1938-induced PIP3 levels are below those required to give rise to sufficient PI(3,4)P2 to be detectable by mass spectrometry, a conclusion also supported by the observation that substantial levels of PIP3 induced by lower doses of PDGF (e.g. 0.5 ng/ml) were also not sufficient to give rise to levels of PI(3,4)P2 detectable by mass. […] A strong PIP3 response was also observed with insulin in these cells, with no PIP3 induced by PDGF, in line with the absence of this receptor in epithelial cells, including in A549.

inhibition of LCK [2]: 58%
Structure (SMILES): CCN1CCN(c2ccc(Nc3cc(Nc4cccc5c4N(C(C)=O)CC5)ccn3)cc2)CC1 [Example 1938]
EC50 ([1]; Mus musculus, Fibroblast, 0.25 h, read-out: EC50 for induction of pAKT, MEFs, 15 min treatment): 2 to 4 µM
pAKT^S473 in PI3Kα-null MEFs ([1]; PI3Kα-null MEFs, 15 min): no pAKT^S473 phosphorylation was observed
concentration at which PIP3 response maxed out [3]: 10 µM
